Data taken from patent US9469674B2 (HAINAN UNIVERSITY, dated 2016).

Test system: Chronic Constriction Injury model of ischiadic nerve (neuralgia)
Details: rat, in vivo

CN1CC[C@]23c4c5ccc(O)c4O[C@H]2[C@@H](O)C=C[C@H]3[C@H]1C5 [morphine, reference compound]
analgesic effect on neuralgia: no analgesic effect | mechanical threshold after withdrawal: no significant difference
